33 molecules from patent US20250154134A1, “COMPOUND AS FAK INHIBITOR AND USE THEREOF” (WIGEN BIOMEDICINE TECHNOLOGY (SHANGHAI) CO., LTD., priority 2022, published 2025) can be followed below.

pIC50: −log10 of the molar value.

For experiment [1], the system named is PC3 cells. The experiment is described as follows: PC3 cell proliferation, 3D activity assay (3D culture, 14 days). The settings on record: Homo sapiens, PC-3, 336 h, read-out: 3D inhibitory activity against PC3 cells IC50. The format is cell-based, human. The procedure: (§1) 2D activity assay: 1200 PC3 cells were seeded in a 96-well plate. After overnight adherence culture, A compound serially diluted was added. […] The growth of the cells was evaluated, and the IC50 of the compound inhibiting cell growth was calculated. 3D activity assay: PC3 cells were seeded in a 96-well plate at 1200 cells/well, and 3D culture was performed. 14 days after a compound serially diluted was added, the growth of the cells was measured. The inhibition percentage and IC50 of the compound were calculated compared to the DMSO control group.

Experiment [2] addresses FAK recombinant protein (Homo sapiens (Human), UniProt Q05397). The experiment is described as follows: Inhibitory activity against FAK enzyme (HTRF, TK substrate). It is filed as biochemical. The procedure:
A compound serially diluted with DMSO was mixed with a FAK recombinant protein. After the mixture was left to stand at room temperature for 10 min, a biotin-labeled TK substrate (TK) and ATP were added. […] The inhibition percentage and IC50 of the compound were calculated compared to the DMSO control group.
For orientation: In TR-FRET formats the signal depends on donor and acceptor labels being close together.

The test system of experiment [3] is PC3 cells. Put plainly: PC3 cell proliferation, 2D activity assay (Cell Titer-Lumi, 72 h). It is filed as cell-based, human. Particulars: Homo sapiens, PC-3, read-out: 2D inhibitory activity against PC3 cells IC50. As to the method:
as §1

Chain of FAK recombinant protein (Q05397 whole entry): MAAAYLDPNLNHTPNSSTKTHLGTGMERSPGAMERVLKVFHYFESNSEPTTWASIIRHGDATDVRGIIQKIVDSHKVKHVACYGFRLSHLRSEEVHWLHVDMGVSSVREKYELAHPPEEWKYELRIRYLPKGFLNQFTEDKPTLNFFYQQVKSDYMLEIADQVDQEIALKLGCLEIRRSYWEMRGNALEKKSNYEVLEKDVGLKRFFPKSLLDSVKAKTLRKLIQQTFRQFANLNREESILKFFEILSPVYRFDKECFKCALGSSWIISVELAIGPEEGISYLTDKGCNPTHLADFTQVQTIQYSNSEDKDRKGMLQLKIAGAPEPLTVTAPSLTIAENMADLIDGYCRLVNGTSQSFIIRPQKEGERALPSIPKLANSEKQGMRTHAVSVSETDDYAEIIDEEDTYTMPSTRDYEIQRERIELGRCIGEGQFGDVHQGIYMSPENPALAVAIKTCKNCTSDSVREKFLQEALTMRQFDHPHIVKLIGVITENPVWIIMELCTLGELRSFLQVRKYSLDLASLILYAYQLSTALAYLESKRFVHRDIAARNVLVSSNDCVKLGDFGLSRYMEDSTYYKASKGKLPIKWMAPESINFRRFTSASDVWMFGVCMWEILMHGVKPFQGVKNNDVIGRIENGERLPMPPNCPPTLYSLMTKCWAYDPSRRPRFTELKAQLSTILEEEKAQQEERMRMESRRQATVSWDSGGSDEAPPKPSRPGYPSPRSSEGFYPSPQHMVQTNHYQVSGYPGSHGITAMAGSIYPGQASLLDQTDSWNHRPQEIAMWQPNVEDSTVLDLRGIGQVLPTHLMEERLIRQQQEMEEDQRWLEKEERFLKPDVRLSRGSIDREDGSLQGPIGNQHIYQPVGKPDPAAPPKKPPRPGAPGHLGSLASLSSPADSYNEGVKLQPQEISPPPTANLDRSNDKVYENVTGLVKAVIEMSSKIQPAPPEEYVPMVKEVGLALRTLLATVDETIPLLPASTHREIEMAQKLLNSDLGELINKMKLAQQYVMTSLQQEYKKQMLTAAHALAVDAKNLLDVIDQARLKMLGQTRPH

For `COc1cc(C(=O)NC2CCC3(CCN(C)C3)C2)c(F)cc1Nc1ncc(C(F)(F)F)c(Oc2cccc3c2C(=O)N(C)C32CC2)n1` (stereo not drawn) [Compound 24], the pIC50 in experiment [1] is 7.30 to 8.30; in experiment [2], above 7.70; in experiment [3], below 5.70.
On the same counts, the results for `COc1cc(C2=NOC3(CCN(C)CC3)C2)ccc1Nc1ncc(C(F)(F)F)c(Oc2cccc3c2C(=O)N(C)C32CC2)n1` [Compound 68] are below 7.30, above 7.70 and below 5.70.
Consider `COc1cc(N2CCN(C)CC2)ccc1Nc1ncc(C(F)(F)F)c(Cc2cccc3c2C(=O)N(C)C32CC2)n1` [Compound 111], for which the figures for the negative-log IC50 (pIC50) in experiment [1], in experiment [2] and in experiment [3] were 7.30 to 8.30, above 7.70 and below 5.70, respectively.
In the same order, the values of `COc1cc(C(=O)NC2CCC3(CC2)CCN3C)ccc1Nc1ncc(C(F)(F)F)c(Oc2cccc3c2C(=O)N(C)C32CC2)n1` (stereo not drawn) [Compound 15] are above 8.30, above 7.70 and below 5.70.
On the same counts, the results for `COc1cc(N2CCC(N(C)C)CC2)c(F)cc1Nc1ncc(Br)c(Oc2cccc3c2C(=O)N(C)C32CC2)n1` [Compound 191] are 7.30 to 8.30, above 7.70 and below 5.70.
On the same counts, the results for `COc1cc(N2CCN(C)CC2)c(F)cc1Nc1ncc(C(F)(F)F)c(Oc2cccc3c2C(=O)N(C)C32CC2)n1` [Compound 122] are above 8.30, above 7.70 and below 5.70.
Consider `CN1CCC(n2ccc(Nc3ncc(C(F)(F)F)c(Oc4cccc5c4C(=O)N(C)C54CC4)n3)n2)CC1` [Compound 97], for which the pIC50 in experiment [1] is 7.30 to 8.30; in experiment [2] it was above 7.70; in experiment [3] it was below 5.70.
On the same counts, the results for `COc1cc(C(=O)NC2CC3(CCN(C)CC3)C2)ccc1Nc1ncc(C(F)(F)F)c(Cc2cccc3c2C(=O)N(C)C32CC2)n1` [Compound 101, 3-methoxy-4-((4-((2′-methyl-3′-oxospiro[cyclopropane-1,1′-isoindolin]-4′-yl)methyl)-5-(trifluoromethyl)pyrimidin-2-yl)amino)-N-(7-methyl-7-azaspiro[3.5]nonan-2-yl)benzamide] are 7.30 to 8.30, above 7.70 and below 5.70.
For the molecule `COc1cc(C(=O)NC2CCN3CCN=C3C2)ccc1Nc1ncc(C(F)(F)F)c(Oc2cccc3c2C(=O)N(C)C32CC2)n1` (stereo not drawn) [Compound 30], the pIC50 was 7.30 to 8.30 in experiment [1], above 7.70 in experiment [2] and below 5.70 in experiment [3].
On the same counts, the results for `COc1cc(C(=O)NC2CC3(CCN(C)CC3)C2)ccc1Nc1ncc(Cl)c(Oc2cccc3c2C(=O)N(C)C32CC2)n1` [Compound 133, 4-((5-chloro-4-((2′-methyl-3′-oxospiro[cyclopropane-1,1′-isoindolin]-4′-yl)oxy)pyrimidin-2-yl)amino)-3-methoxy-N-(7-methyl-7-azaspiro[3.5]nonan-2-yl)benzamide] are 7.30 to 8.30, above 7.70 and below 5.70.
Turning to `COc1cc(C(=O)N2CCC3(CCN(C)CC3)CC2)ccc1Nc1ncc(C(F)(F)F)c(Oc2cccc3c2C(=O)N(C)C32CC2)n1` [Compound 56], the pIC50 in experiment [1] was below 7.30; in experiment [2], above 7.70; in experiment [3], below 5.70.
On the same counts, the results for `COc1cc(C(=O)NC2CCC23CCN(C)CC3)c(F)cc1Nc1ncc(C(F)(F)F)c(Oc2cccc3c2C(=O)N(C)C32CC2)n1` (stereo not drawn) [Compound 12] are above 8.30, above 7.70 and below 5.70.
Turning to `COc1cc(C(=O)NC2CCN(C)CC2)ccc1Nc1ncc(C#N)c(Oc2cccc3c2C(=O)N(C)C32CC2)n1` [Compound 192, 4-((5-cyano-4-((2′-methyl-3′-oxospiro[cyclopropane-1,1′-isoindolin]-4′-yl)oxy)pyrimidin-2-yl)amino)-3-methoxy-N-(1-methylpiperidin-4-yl)benzamide], the negative logarithm of the IC50 (pIC50) was above 8.30 in experiment [1], above 7.70 in experiment [2] and below 5.70 in experiment [3].
In the same order, the values of `COc1cc(C(=O)NC2CCC3(CC2)CN(C)C3)ccc1Nc1ncc(C(F)(F)F)c(Cc2cccc3c2C(=O)N(C)C32CC2)n1` [Compound 103] are 7.30 to 8.30, above 7.70 and below 5.70.
On the same counts, the results for `COc1cc(CN(C)C2CCN(C)CC2)c(F)cc1Nc1ncc(Cl)c(Oc2cccc3c2C(=O)N(C)C32CC2)n1` [Compound 156] are 7.30 to 8.30, above 7.70 and below 5.70.
Turning to `C=Cc1cc(C(=O)NC2CCN(C)CC2)ccc1Nc1ncc(C(F)(F)F)c(Oc2cccc3c2C(=O)N(C)C32CC2)n1` [Compound 49], the results for the negative-log IC50 (pIC50) in experiment [1], in experiment [2] and in experiment [3] were 7.30 to 8.30, above 7.70 and below 5.70, respectively.
On to `COc1cc(C(=O)NC2CCN(C)CC2F)ccc1Nc1ncc(C(F)(F)F)c(Oc2cccc3c2C(=O)N(C)C32CC2)n1` (stereo not drawn) [Compound 33], for which the figures for the negative logarithm of the IC50 (pIC50) in experiment [1], in experiment [2] and in experiment [3] were above 8.30, above 7.70 and below 5.70, respectively.
In the same order, the values of `COc1cc(N2CC3(CCN(C)CC3)OC2=O)ccc1Nc1ncc(C(F)(F)F)c(Oc2cccc3c2C(=O)N(C)C32CC2)n1` [Compound 64] are 7.30 to 8.30, above 7.70 and below 5.70.
On the same counts, the results for `COc1cc(C2CCN(C)CC2)c(F)cc1Nc1ncc(Cl)c(Oc2cccc3c2C(=O)N(C)C32CC2)n1` [Compound 134, 4′-((5-chloro-2-((5-fluoro-2-methoxy-4-(1-methylpiperidin-4-yl)phenyl)amino)pyrimidin-4-yl)oxy)-2′-methylspiro[cyclopropane-1,1′-isoindolin]-3′-one] are above 8.30, above 7.70 and below 5.70.
In the same order, the values of `COc1cc(C(=O)NC2CCN(C)CC2)c(Cl)cc1Nc1ncc(C(F)(F)F)c(Oc2cccc3c2C(=O)N(C)C32CC2)n1` [Compound 5] are above 8.30, above 7.70 and below 5.70.
For `CCN1CCC(NC(=O)c2ccc(Nc3ncc(C(F)(F)F)c(Oc4cccc5c4C(=O)N(C)C54CC4)n3)c(OC)c2)CC1` [Compound 37], the pIC50 was above 8.30 in experiment [1], above 7.70 in experiment [2] and below 5.70 in experiment [3].
Consider `COc1cc(N2CC3(CCN(C)CC3)C2)ccc1Nc1ncc(C2CC2)c(Oc2cccc3c2C(=O)N(C)C32CC2)n1` [Compound 131, 4′-((5-cyclopropyl-2-((2-methoxy-4-(7-methyl-2,7-diazaspiro[3.5]nonan-2-yl)phenyl)amino)pyrimidin-4-yl)oxy)-2′-methylspiro[cyclopropane-1,1′-isoindolin]-3′-one], for which the negative logarithm of the IC50 (pIC50) in experiment [1] was 7.30 to 8.30; in experiment [2], above 7.70; in experiment [3], below 5.70.
On the same counts, the results for `COc1cc(C(=O)NC2CC3(CCN(C)CC3)C2)c(F)cc1Nc1ncc(Cl)c(Oc2cccc3c2C(=O)N(C)C32CCCC2)n1` [Compound 208] are below 7.30, above 7.70 and below 5.70.
In the case of `COc1cc(C(=O)NC2CCC3(CCN(C)C3)C2)ccc1Nc1ncc(C(F)(F)F)c(Oc2cccc3c2C(=O)N(C)C32CC2)n1` (stereo not drawn) [Compound 25], the negative logarithm of the IC50 (pIC50) in experiment [1] was above 8.30; in experiment [2], above 7.70; in experiment [3], below 5.70.
Take `COc1cc(C(=O)N2CCC23CCN(C)CC3)ccc1Nc1ncc(C(F)(F)F)c(Oc2cccc3c2C(=O)N(C)C32CC2)n1` [Compound 59]: the results for the negative-log IC50 (pIC50) in experiment [1], in experiment [2] and in experiment [3] were 7.30 to 8.30, above 7.70 and below 5.70, respectively.
On the same counts, the results for `COc1cc(N2CCC(N3CCN(C)CC3)CC2)ccc1Nc1ncc(C(F)(F)F)c(Cc2cccc3c2C(=O)N(C)C32CC2)n1` [Compound 113] are 7.30 to 8.30, above 7.70 and below 5.70.
In the same order, the values of `CCc1cc(C(=O)NC2CCN(C)CC2)c(F)cc1Nc1ncc(C(F)(F)F)c(Oc2cccc3c2C(=O)N(C)C32CC2)n1` [Compound 51] are 7.30 to 8.30, above 7.70 and below 5.70.
Turning to `COc1cc(C(=O)NC2CCN(C)CC2)ccc1Nc1ncc(Br)c(Oc2cccc3c2C(=O)N(C)C32CC2)n1` [Compound 116], the negative-log IC50 (pIC50) in experiment [1] is 7.30 to 8.30; in experiment [2] it was above 7.70; in experiment [3], below 5.70.
In the same order, the values of `COc1cc(N2CC3(CCN(C)CC3)C2)ccc1Nc1ncc(Cl)c(Oc2cccc3c2C(=O)N(C)C32CCOCC2)n1` [Compound 213] are below 7.30, above 7.70 and below 5.70.
On the same counts, the results for `COc1cc(C(=O)NC2COC3(CCN(C)CC3)C2)ccc1Nc1ncc(C(F)(F)F)c(Oc2cccc3c2C(=O)N(C)C32CC2)n1` (stereo not drawn) [Compound 17] are above 8.30, above 7.70 and below 5.70.
On to `COc1cc(N2CC3(CCN(C)CC3)C2)c(F)cc1Nc1ncc(Cl)c(Oc2cccc3c2C(=O)N(C)C32CCC2)n1` [Compound 206], for which the figures for the negative-log IC50 (pIC50) in experiment [1], in experiment [2] and in experiment [3] were above 8.30, above 7.70 and below 5.70, respectively.
On the same counts, the results for `COc1cc(N2CCN(C)CC2=O)c(F)cc1Nc1ncc(C(F)(F)F)c(Oc2cccc3c2C(=O)N(C)C32CC2)n1` [Compound 129] are 7.30 to 8.30, above 7.70 and below 5.70.
In the case of `COc1cc(N2CCN(C)CC2)ccc1Nc1ncc(Br)c(Oc2cccc3c2C(=O)N(C)C32CC2)n1` [Compound 184], the negative-log IC50 (pIC50) in experiment [1] was 7.30 to 8.30; in experiment [2], above 7.70; in experiment [3], below 5.70.

By pIC50 is commonly meant −log10 of the IC50, conventionally taken in molar units.
